According to US11730712B2, “Functionalized long-chain hydrocarbon mono- and di-carboxylic acids and derivatives thereof, and their use for the prevention or treatment of disease” (ESPERVITA THERAPEUTICS, INC., priority 2021, dated 2023):

Tested on: tumor cancer pathway gene panel
Experiment: Nanostring nCounter Cancer panel gene expression in tumor of DEN-injected mice
Type: in vivo, mouse
Conditions: 100 mg/kg, 4 weeks
Procedure: Nanostring Analysis. RNA was extracted from paired liver and tumor tissue from vehicle, Compound I-1 (100 mg/kg) and Compound I-32 (100 mg/kg) treated mice using an RNeasy kit (Qiagen, Calif., USA) as per manufacturer's protocol. All RNA samples passed the BioAnalyzer quality control test. The expression of target genes in liver and tumor were analyzed using the nCounter Fibrosis and Cancer Panel (NanoString Technologies, Inc., WA, USA), respectively according to manufacturer's protocol at the McMaster Genomics Facility. Technical and biological normalization against global geometric mean was performed in nSolver 4.0 software (NanoString Technologies). Technical normalization was performed in the nSolver software (version 4.0.70) by normalizing sample target raw counts to the geometric mean of positive control spike-ins. […] Pathway scores were calculated as the first principal component of the normalized expression values for all genes in each pathway and samples were compiled according to experimental groups to determine average pathway scores. Statistical significance was calculated between experimental groups using multiple t-tests and p-values were corrected for multiple comparisons using Benjamin-Hochberg false discovery rate. […]

## CC(C)(CCCCc1ccc(CCCCC(C)(C)C(=O)O)cc1)C(=O)O [Compound I-1, 6-[4-(5-carboxy-5-methylhexyl)-phenyl]-2,2-dimethylhexanoic acid]
  effects on tumor gene expression pathways related to cancer progression and survival: exerted pronounced effects on gene expression pathways related to cancer progression and survival
